The values below come from patent US9617244B2, “Antibacterial quinoline derivatives” (JANSSEN PHARMACEUTICA NV, priority 2012, dated 2017).

Structures can show the parent of a compound that is named as a salt. Bounds are passed on as bounds.

On to `CS(=O)(=O)c1ccc2[nH]c(=O)c(C(c3ccc(Cl)cc3)C3(O)CCN[C@@H](Cc4ccc(F)c(F)c4)C3)cc2c1` (stereo in doubt) (as salt: hydrochloride) [Compound 205], for which the melting point (in general, the temperature, or range, at which the solid turns liquid) is > 250 °C.
In turn, `COc1nc2ccc(SC)cc2cc1C(c1ccc(Cl)cc1)C1(O)CCNC(Cc2ccccc2)C1` (centres unmarked) (as salt: fumarate) [Compound 90] yielded a melting point of 140 °C.
Then `COc1nc2ccc(Br)cc2cc1C(c1ccc(Cl)cc1)C1(O)CCNC(Cc2ccc(F)c(F)c2)C1` (centres unmarked) (as salt: fumarate) [Compound 113], with 130 °C; and `COc1nc2ccc(Br)cc2cc1C(c1ccc(Cl)cc1)C1(O)CCNC(Cc2ccc(F)cc2F)C1` (centres unmarked) (as salt: trifluoroacetate) [Compound 51], with 176 °C; and `COc1nc2ccc(Cl)cc2cc1C(c1ccc(Cl)cc1)C1(O)CCNC(c2ccc3ccccc3c2)C1` (centres unmarked) (as salt: fumarate) [Compound 430], with 184 °C.
For `O=c1[nH]c2ccc(Br)cc2cc1C(c1ccc(Cl)cc1)C1(O)CCNC(Cc2ccc(F)cc2F)C1` (centres unmarked) (as salt: hydrochloride) [Compound 322] the value was 248 °C; for `COc1nc2ccc(Br)cc2cc1C(c1ccc(Cl)cc1)C1(O)CCN(Cc2ccccc2)CC1C` (centres unmarked) (as salt: salt) [Compound 25], 154 °C.
For `COc1nc2ccc(Br)cc2cc1C(c1ccc(Cl)cc1)C1(O)CCN(Cc2ccccc2)C(Cc2ccccc2)C1` (centres unmarked) (as salt: fumarate) [Compound 76] the value was 148 °C.
`COc1nc2ccc(S(C)(=O)=O)cc2cc1C(c1ccc(Cl)cc1)C1(O)CCNC(Cc2ccc(F)cc2F)C1` (centres unmarked) (as salt: trifluoroacetate) [Compound 306] came in with a melting point of 157 °C.
As for `CS(=O)(=O)c1ccc2[nH]c(=O)c(C(c3cccc(Cl)c3)C3(O)CCNC(Cc4ccc(F)cc4F)C3)cc2c1` (centres unmarked) (as salt: hydrochloride) [Compound 307], the melting point was determined as 232 °C.
Then `COc1nc2ccc(Br)cc2cc1C(c1ccc(Cl)cc1)C1(O)CCNC(Cc2ccc(F)c(F)c2)C1` (centres unmarked) [Compound 111], with 111 °C.
For `Cc1cc(F)ccc1C1CC(O)(C(c2ccc(Cl)cc2)c2cc3cc(Cl)ccc3[nH]c2=O)CCN1` (centres unmarked) (as salt: hydrochloride) [Compound 303], the melting point is > 250 °C.
Then `Cc1cc(F)ccc1C1CC(O)(C(c2ccccc2)c2cc3cc(Br)ccc3[nH]c2=O)CCN1` (centres unmarked) (as salt: hydrochloride) [Compound 192], with > 250 °C.
Then `COc1nc2ccccc2cc1C(c1ccccc1)C1(O)CCNC(Cc2ccccc2)C1` (centres unmarked) (as salt: fumarate) [Compound 399], with 222 to 224 °C.
For `COc1nc2ccc(S(C)(=O)=O)cc2cc1C(c1cccc(Cl)c1)C1(O)CCNC(Cc2ccc(F)cc2F)C1` (centres unmarked) (as salt: trifluoroacetate) [Compound 326] the value was 166 °C.
As for `COc1nc2ccccc2cc1C(c1ccccc1)C1(O)CCNC(Cc2ccccc2)C1` (centres unmarked) (as salt: fumarate) [Compound 400], the melting point amounted to 157 °C.
In turn, `COc1nc2ccc(Cl)cc2cc1C(c1ccc(Cl)cc1)C1(O)CCNC(c2ccccc2)C1` (centres unmarked) (as salt: fumarate) [Compound 403] registered a melting point of 176 °C.
For `COc1nc2ccc(Br)cc2cc1C(n1cccn1)C1(O)CCNC(Cc2ccccc2)C1` (centres unmarked) (as salt: fumarate) [Compound 429] the value was > 260 °C; for `COc1nc2ccc(F)cc2cc1C(c1ccc(Cl)cc1)C1(O)CCNC(c2ccc(F)cc2C)C1` (centres unmarked) (as salt: fumarate) [Compound 331], 166 °C; for `COc1nc2ccc(F)cc2cc1C(c1ccc(Cl)cc1)C1(O)CCNC(c2ccc(F)cc2C)C1` (centres unmarked) (as salt: fumarate) [Compound 332], 164 °C.
For `COc1nc2ccc(Br)cc2cc1C(c1cccc(Cl)c1)C1(O)CCNC(c2ccc(F)cc2C)C1` (centres unmarked) (as salt: fumarate) [Compound 152] the value was 170 °C.
As for `COc1nc2ccc(Br)cc2cc1C(c1ccc(Cl)cc1)C1(O)CCN(Cc2ccccc2)C(Cc2ccccc2)C1` (centres unmarked) [Compound 75], the melting point is 192 °C.
Then `COc1nc2ccc(F)cc2cc1C(c1ccc(S(C)(=O)=O)cc1)C1(O)CCNC(c2ccc(F)cc2C)C1` (centres unmarked) (as salt: fumarate) [Compound 418], with 164 to 166 °C; and `O=c1[nH]c2ccc(Br)cc2cc1C(c1ccc(Cl)cc1)C1(O)CCNC(Cc2ccc(F)c(F)c2)C1` (centres unmarked) (as salt: hydrochloride) [Compound 40], with 224 °C; and `O=c1[nH]c2ccc(Cl)cc2cc1C(c1ccc(Cl)cc1)C1(O)CCNC(Cc2ccc(F)cc2)C1` (centres unmarked) (as salt: hydrochloride) [Compound 343], with > 250 °C.
For `CC1CC(O)(C(c2ccc(Cl)cc2)c2cc3cc(Br)ccc3[nH]c2=O)CCN1` (centres unmarked) (as salt: hydrochloride) [Compound 132] the value was 244 °C; for `Cc1cc(F)ccc1C1CC(O)(C(c2ccc(Cl)cc2)c2cc3cc(S(C)(=O)=O)ccc3[nH]c2=O)CCN1` (centres unmarked) (as salt: hydrochloride) [Compound 220], > 250 °C.
For `COc1nc2ccc(Br)cc2cc1C(c1ccc(Cl)cc1)C1(O)CCNC(Cc2ccccc2)C1` (centres unmarked) (as salt: fumarate) [Compound 77] the value was 155 °C.
Turning to `COc1nc2ccc(Cl)cc2cc1C(c1ccc(Cl)cc1)C1(O)CCNC(Cc2ccc(F)cc2)C1` (centres unmarked) (as salt: fumarate) [Compound 347], the melting point is 148 to 150 °C.
In the case of `Cc1cc(F)ccc1C1CC(O)(C(c2ccccc2)c2cc3cc(S(C)(=O)=O)ccc3[nH]c2=O)CCN1` (centres unmarked) (as salt: hydrochloride) [Compound 237], the melting point was > 250 °C.
For `COc1nc2ccccc2cc1C(c1ccccc1)C1(O)CCNC(c2ccccc2)C1` (centres unmarked) (as salt: fumarate) [Compound 415] the value was 160 °C.
Then `COc1nc2ccc(Cl)cc2cc1C(c1ccc(Cl)cc1)C1(O)CCNC(c2ccc3ccccc3c2)C1` (centres unmarked) (as salt: fumarate) [Compound 431], with 178 °C; and `CSc1ccc2[nH]c(=O)c(C(c3cccc(Cl)c3)C3(O)CCNC(c4ccc(F)cc4C)C3)cc2c1` (centres unmarked) (as salt: hydrochloride) [Compound 160], with > 250 °C; and `COc1nc2ccc(Cl)cc2cc1C(c1ccc(Cl)cc1)C1(O)CCNCC1c1ccccc1` (centres unmarked) (as salt: fumarate) [Compound 412], with 166 °C.
Take `Cc1cc(F)ccc1C1CC(O)(C(c2ccccc2)c2cc3cc(-c4cccnc4)ccc3[nH]c2=O)CCN1` (centres unmarked) (as salt: hydrochloride) [Compound 236]: the melting point is > 250 °C.
For `COc1nc2ccc(Br)cc2cc1C(c1ccc(Cl)cc1)C1(O)CCN(Cc2ccccc2)CC1C` (centres unmarked) (as salt: salt) [Compound 26] the value was 238 °C; for `O=c1[nH]c2ccc(Br)cc2cc1[C@@H](c1ccc(Cl)cc1)[C@]1(O)CCNC(Cc2ccccc2)C1` (some centres unmarked) (as salt: hydrochloride) [Compound 121], > 260 °C.
For `CC1CC(O)(C(c2ccc(Cl)cc2)c2cc3cc(Br)ccc3[nH]c2=O)CCN1` (centres unmarked) (as salt: hydrochloride) [Compound 131] the value was 241 °C.
Then `COc1nc2ccc(SC)cc2cc1C(c1ccccc1)C1(O)CCNC(c2ccc(F)cc2C)C1` (centres unmarked) (as salt: fumarate) [Compound 170], with 176 °C; and `COc1nc2ccc(SC)cc2cc1C(c1ccc(Cl)cc1)C1(O)CCNC(Cc2ccccc2)C1` (centres unmarked) (as salt: fumarate) [Compound 93], with > 250 °C; and `O=c1[nH]c2ccc(Br)cc2cc1C(c1cccc(Cl)c1)C1(O)CCNC(Cc2ccccc2)C1` (centres unmarked) (as salt: hydrochloride) [Compound 85], with > 260 °C.
For `Cc1cc(F)ccc1C1CC(O)(C(c2cccc(Cl)c2)c2cc3cc(Br)ccc3[nH]c2=O)CCN1` (centres unmarked) (as salt: hydrochloride) [Compound 135], the melting point was > 250 °C.
For `CSc1ccc2[nH]c(=O)c(C(c3ccc(Cl)cc3)C3(O)CCNC(Cc4ccc(F)cc4)C3)cc2c1` (centres unmarked) (as salt: hydrochloride) [Compound 334] the value was 232 °C; for `COc1nc2ccc(Br)cc2cc1C(c1ccc(Cl)cc1)C1(O)CCNC(Cc2ccccc2)C1` (centres unmarked) [Compound 78], 130 °C; for `CSc1ccc2[nH]c(=O)c(C(c3ccc(Cl)cc3)C3(O)CCNC(c4ccccc4)C3)cc2c1` (centres unmarked) (as salt: hydrochloride) [Compound 230], > 250 °C.
Then `COc1nc2ccccc2cc1C(c1ccc(Cl)cc1)C1(O)CCNC(Cc2ccc(F)c(F)c2)C1` (centres unmarked) (as salt: fumarate) [Compound 139], with 130 °C; and `CSc1nc2ccc(Br)cc2cc1C(c1ccc(Cl)cc1)C1(O)CCNC(Cc2ccccc2)C1` (centres unmarked) (as salt: fumarate) [Compound 88], with 194 °C.
For `CSc1ccc2[nH]c(=O)c(C(c3cccc(Cl)c3)C3(O)CCNC(Cc4ccc(F)cc4F)C3)cc2c1` (centres unmarked) (as salt: hydrochloride) [Compound 309] the value was > 260 °C; for `O=c1[nH]c2ccc(Br)cc2cc1C(c1ccc(Cl)cc1)C1(O)CCNC(CC2CCCCC2)C1` (centres unmarked) (as salt: hydrochloride) [Compound 254], > 250 °C.
For the compound `CSc1ccc2[nH]c(=O)c(C(c3ccc(Cl)cc3)C3(O)CCNC(CC4CCCCC4)C3)cc2c1` (centres unmarked) (as salt: hydrochloride) [Compound 295], the melting point is > 250 °C.
Then `COc1nc2ccc(Br)cc2cc1C(n1cccn1)[C@@]1(O)CCN[C@H](Cc2ccccc2)C1` (stereo in doubt) (as salt: fumarate) [Compound 67], with 245 °C; and `COc1nc2ccc(Cl)cc2cc1C(c1ccc(Cl)cc1)C1(O)CCNC(Cc2ccc(F)cc2)C1` (centres unmarked) (as salt: fumarate) [Compound 346], with 151 to 153 °C.
Then `CSc1ccc2[nH]c(=O)c(C(c3ccc(Cl)cc3)C3(O)CCNC(Cc4ccc(F)cc4)C3)cc2c1` (centres unmarked) (as salt: hydrochloride) [Compound 282], with 206 °C.
